Assay results from patent US4100346A, “Certain 7(o-amino-methyl- or methylaminomethylphenyl- or cyclohexadienyl- or thienylacetamide)-3[1-carboxymethyl-(or ethyl- or propyl-)-tetrazol-5-ylthiomethyl]-3-cephem-4-carboxylic acids” (Bristol-Myers Company, priority 1976, dated 1978).
Values after ≈ are worked out from the molar mass of the structure shown. Like-named read-outs stand apart in the source and are kept apart here.

Assays:
[1] = tested on: Bordetella bronchiseptica; experiment: Growth inhibitory activity, antibiotic dilution technique; conditions: read-out: Minimum inhibitory concentration
Streptococcus pyogenes = experiment: Intramuscular treatment of systemically infected mice; type: in vivo; conditions: im, 3.5 h, read-out: PD50 /treatment
Text: (§1) Treatment of Systemically Infected Mice. The procedures were identical with those published previously [Leitner et al., BL-S640, a Cephalosporin With a Broad Spectrum of Antibacterial Activity: Bioavailability and Therapeutic Properties in Rodents, Antimicrob. Agents Chemother. 7:306-310, (1975)], except that:
(§2) (a) the hog gastric mucin used in infections with Staphylococcus aureus No. 2 was purchased from American Laboratories, Inc., Omaha, Neb. (lot No. 154163) and b) that the medium used to suspend all other organisms contained 3% (rather than 4%) hog gastric mucin (type 1701W, Wilson Laboratories, Inc., Park Forest South, Ill.).
(§3) *Animals infected with penicillinase-producing staphyloccal strains (No.
(§4) and 3) were treated 0 and 2 hours after infection; the others were treate
(§5) 1 and 3.5 hours after infection.

Staphylococcus aureus = experiment: as above; type: in vivo; conditions: im, read-out: PD50 /treatment
Text: as §1, §2, §3, §4, §5

Streptococcus pneumoniae = experiment: as above; type: in vivo; conditions: im, 3.5 h, read-out: PD50 /treatment
Text: as §1, §2, §3, §4, §5

[2] = Recovery in urine after intramuscular injection; conditions: rat, im, 10 mg/kg
Proteus rettgeri = experiment: Intramuscular treatment of systemically infected mice; type: in vivo; conditions: Providencia rettgeri, im, Proteus rettgeri strain 4, challenge 2×10^6 -3×10^6, treated 1 and 3.5 hours after infection, read-out: PD50 /treatment
Text: as §1, §2
(§6) *Animals were treated twice; 1 and 3.5 hours after infection.

Proteus morganii = experiment: as above; type: in vivo; conditions: Morganella morganii, im, 3.5 h, read-out: PD50 /treatment
Text: as §1, §2, §6

Citrobacter sp. = experiment: as above; type: in vivo; conditions: im, Citrobacter sp. strain 1, challenge 5×10^6 -2×10^7, treated 1 and 3.5 hours after infection, read-out: PD50 /treatment
Text: as §1, §2, §6

Proteus mirabilis = experiment: as above; type: in vivo; conditions: im, 3.5 h, read-out: PD50 /treatment
Text: as §1, §2, §6

Escherichia coli = experiment: as above; type: in vivo; conditions: im, 3.5 h, read-out: PD50 /treatment
Text: as §1, §2, §6

Providencia stuartii = experiment: as above; type: in vivo; conditions: im, 3.5 h, read-out: PD50 /treatment
Text: as §1, §2, §6

Klebsiella pneumoniae = experiment: as above; type: in vivo; conditions: im, 3.5 h, read-out: PD50 /treatment
Text: as §1, §2, §6

Proteus vulgaris = experiment: as above; type: in vivo; conditions: im, 3.5 h, read-out: PD50 /treatment
Text: as §1, §2, §6

Vibrio cholerae = experiment: Growth inhibitory activity, antibiotic dilution technique; conditions: read-out: Minimum inhibitory concentration
in vitro = in vitro ADME, human; conditions: In 95% human serum; read-out: protein bound (converted)
Sal. enteritidis = experiment: M.I.C. by Tube Dilution in Nutrient Broth (Examples 1 and 2); type: cell-based; conditions: Salmonella enterica; Sal. enteritidis A9531 (10 ^4)
Text: (§7) | **Dilution of overnight broth culture

Ps. aeruginosa = experiment: as above; type: cell-based; conditions: Pseudomonas aeruginosa
Text: as §7

E. coli = experiment: as above; type: cell-based; conditions: Escherichia coli, E. coli A9675 (10^-4)
Text: as §7

Pr. morganii = experiment: as above; type: cell-based; conditions: Morganella morganii; Pr. morganii A15153 (10^-4)
Text: as §7

S. aureus = experiment: as above; type: cell-based; conditions: Staphylococcus aureus
Text: as §7

K. pneumoniae = experiment: as above; type: cell-based; conditions: Klebsiella pneumoniae
Text: as §7

Ser. marcescens = experiment: as above; type: cell-based; conditions: Serratia marcescens; Ser. marcescens A20019 (10^-4)
Text: as §7

Pr. mirabilis = experiment: as above; type: cell-based; conditions: Proteus mirabilis; Pr. mirabilis A9900 (10^-4)
Text: as §7

Ent. cloacae = experiment: as above; type: cell-based; conditions: Enterobacter cloacae
Text: as §7

For `NCc1ccccc1CC(=O)N[C@@H]1C(=O)N2C(C(=O)O)=C(CSc3nnnn3CC(=O)O)CS[C@H]12` [Example 1], which MIC [1] is on record?
Its MIC is 125 µg/mL (≈ 241 µM).

What about the ED50 (Streptococcus pyogenes; Streptococcus pyogenes strain 1, challenge 2 × 10^3 -6 × 10^3, treated 1 and 3.5 hours after infection) of the same compound?
Its ED50 is 2.9 mg/kg.

What about the ED50 (Streptococcus pyogenes; Streptococcus pyogenes strain 2, challenge 1 × 10^4 - 5 × 10^4, treated 1 and 3.5 hours after infection) of the same compound?
Its ED50 is 0.93 mg/kg.

And the ED50 (Staphylococcus aureus; 3.5 h, Staphylococcus aureus strain 1, challenge 2 × 10^5 - 3 × 10^5, treated 1 and 3.5 hours after infection)?
The ED50 was 0.3 mg/kg.

What about the ED50 (Staphylococcus aureus; Staphylococcus aureus strain 2 (penicillinase-producing), challenge 1 × 10^9, treated 0 and 2 hours after infection) of the same compound?
Its ED50 is 5.4 mg/kg.

And the ED50 (Staphylococcus aureus; Staphylococcus aureus strain 3 (penicillinase-producing), challenge 5 × 10^8 - 7 × 10^9, treated 0 and 2 hours after infection)?
Its ED50 is 10 mg/kg.

What about the ED50 (Streptococcus pneumoniae; Streptococcus pneumoniae strain 1, challenge 2 × 10^3 - 9 × 10^3, treated 1 and 3.5 hours after infection) of the same compound?
The ED50 was 0.52 mg/kg.

And the ED50 (Streptococcus pneumoniae; Streptococcus pneumoniae strain 2, challenge 1 × 10^4 - 3 × 10^4, treated 1 and 3.5 hours after infection)?
Its ED50 is 1.6 mg/kg.

And the dose excreted at 24 h [2]?
The dose excreted at 24 h was 65%.

What about the ED50 (Proteus rettgeri) of the same compound?
The ED50 was 2.4 mg/kg.

And the ED50 (Proteus morganii; Proteus morganii strain 1, challenge 1×10^5 -4×10^5, treated 1 and 3.5 hours after infection)?
The ED50 was 19 mg/kg.

And the ED50 (Proteus morganii; Proteus morganii strain 2, challenge 2×10^6 -3×10^6, treated 1 and 3.5 hours after infection)?
The ED50 was 39 mg/kg.

And the ED50 (Citrobacter sp.)?
Its ED50 is 3.5 mg/kg.

And the ED50 (Proteus mirabilis; Proteus mirabilis strain 1, challenge 7×10^6 -9×10^6, treated 1 and 3.5 hours after infection)?
The ED50 was 1.4 mg/kg.

What about the ED50 (Proteus mirabilis; Proteus mirabilis strain 5, challenge 9×10^5 -3×10^6, treated 1 and 3.5 hours after infection) of the same compound?
The ED50 was 0.62 mg/kg.

And the ED50 (Proteus mirabilis; Proteus mirabilis strain 8, challenge 6×10^5 -4×10^6, treated 1 and 3.5 hours after infection)?
Its ED50 is 0.59 mg/kg.

What about the ED50 (Escherichia coli; Escherichia coli strain 1, challenge 2×10^5 organisms, treated 1 and 3.5 hours after infection) of the same compound?
Its ED50 is 0.37 mg/kg.

And the ED50 (Escherichia coli; Escherichia coli strain 8, challenge 6×10^5 -4×10^6, treated 1 and 3.5 hours after infection)?
Its ED50 is 1.5 mg/kg.

What about the ED50 (Escherichia coli; Escherichia coli strain 9, challenge 7×10^3 -2×10^4, treated 1 and 3.5 hours after infection) of the same compound?
Its ED50 is 2.2 mg/kg.

What about the ED50 (Providencia stuartii; Providencia stuartii strain 2, challenge 1×10^6 ×5×10^6, treated 1 and 3.5 hours after infection) of the same compound?
Its ED50 is 5.9 mg/kg.

And the ED50 (Providencia stuartii; Providencia stuartii strain 3, challenge 2×10^7, treated 1 and 3.5 hours after infection)?
Its ED50 is 8 mg/kg.

What about the ED50 (Klebsiella pneumoniae; Klebsiella pneumoniae strain 1, challenge 4×10^4 -5×10^4, treated 1 and 3.5 hours after infection) of the same compound?
Its ED50 is 2 mg/kg.

And the ED50 (Klebsiella pneumoniae; Klebsiella pneumoniae strain 7, challenge 9×10^2 -1×10^3, treated 1 and 3.5 hours after infection)?
The ED50 was 22 mg/kg.

What about the ED50 (Proteus vulgaris; Proteus vulgaris strain 1, challenge 1×10^6 -2×10^6, treated 1 and 3.5 hours after infection) of the same compound?
The ED50 was 1.8 mg/kg.

What about the ED50 (Proteus vulgaris; Proteus vulgaris strain 3, challenge 4×10^5, treated 1 and 3.5 hours after infection) of the same compound?
The ED50 was 2.5 mg/kg.

What about the MIC (Vibrio cholerae) of the same compound?
The MIC was 4 µg/mL (≈ 7.7 µM).

What about the fraction unbound (in vitro) of the same compound?
The fraction unbound was 0.33.

What about the MIC (Sal. enteritidis) of the same compound?
Its MIC is 0.06 µg/mL (≈ 0.115 µM).

And the MIC (Ps. aeruginosa)?
The MIC was over 125 µg/mL.

What about the MIC (E. coli) of the same compound?
The MIC was 16 µg/mL (≈ 30.8 µM).

What about the MIC (Pr. morganii) of the same compound?
Its MIC is 32 µg/mL (≈ 61.6 µM).

What about the MIC (S. aureus; S. aureus BX1633 A9606 (10^-2)) of the same compound?
The MIC was 2 µg/mL (≈ 3.85 µM).

What about the MIC (S. aureus; S. aureus BX1633 A9606 (10^-3)) of the same compound?
The MIC was 1 µg/mL (≈ 1.92 µM).

What about the MIC (S. aureus; S. aureus Meth-Res A15097 (10^-3)) of the same compound?
The MIC was 4 µg/mL (≈ 7.7 µM).

What about the MIC (S. aureus; S. aureus Smith A9537 (10^-4)) of the same compound?
Its MIC is 1 µg/mL (≈ 1.92 µM).

And the MIC (S. aureus; S. aureus-50% serum A9537 (10^-4))?
Its MIC is 4 µg/mL (≈ 7.7 µM).

And the MIC (K. pneumoniae; K. pneumoniae A9977 (10^-4))?
Its MIC is 0.13 µg/mL (≈ 0.25 µM).

What about the MIC (K. pneumoniae; K. pneumoniae A15130 (10^-4)) of the same compound?
Its MIC is 2 µg/mL (≈ 3.85 µM).

And the MIC (Ser. marcescens)?
The MIC was 125 µg/mL (≈ 241 µM).

What about the MIC (Pr. mirabilis) of the same compound?
The MIC was 0.13 µg/mL (≈ 0.25 µM).

What about the MIC (Ent. cloacae; Ent. cloacae A9657 (10^-4)) of the same compound?
Its MIC is 0.25 µg/mL (≈ 0.481 µM).

What about the MIC (Ent. cloacae; Ent. cloacae A9659 (10^-4)) of the same compound?
Its MIC is 32 µg/mL (≈ 61.6 µM).

What about the MIC (Ent. cloacae; Ent. cloacae A9656 (10^-4)) of the same compound?
The MIC was over 125 µg/mL.
